Experiments:
Type in all cases: in vivo
[1] = test system: APP23 mice; assay: Telemetric hippocampal EEG recordings (spike analysis, cross frequency coupling) in APP23 mice; conditions: for amplitude phase in EEG recordings / modulation index of cross frequency coupling: vs wt controls; for spike frequency / hypersynchronous discharges in EEG: intraperitoneal, 2 hours pre vs 2 hours post administration, and vs vehicle
Protocol: (§1) FIG. 3. LIMK1 inhibition reduced susceptibility to induced seizures and mitigated neuronal network hypersynchronisity in mice. (A) Excitotoxic seizures were induced by acute intraperitoneal injection of 50 mg/kg body weight pentylenetetrazole (PTZ) followed by timing and scoring (0=no seizures to 7=terminal status epilepticus) of seizure development. Mice were treated with vehicle or 10 mg/kg body weight LIMK1 inhibitor LIMKi intraperitoneally 30 minutes prior to seizure induction. […] (B) Compound hippocampal electroencephalography (EEG) recordings over 4 hours in non-transgenic (wt) and APP transgenic (APP23) mice including 2 hours before (Pre) and 2 hours after (Post) LIMKi or vehicle administration. Time of intraperitoneal LIMKi and vehicle administration is indicated with an arrow. […] Frequent spikes pre and post vehicle administration in APP23 mice. In contrast, LIMKi injection mitigates spike activity in APP23 post injection. […] From left to right: non-Tg+vehicle; non-Tg+LIMKi; APP23+vehicle; APP23+LIMKi.
Mice. APP23 express human Swedish mutant (K595N/M596L) amyloid-β precursor protein (APP) in neurons (Sturchler-Pierrat et al., 1997, Proc Natl Acad Sci USA 94, 13287-13292). Limk1^−/− mice have been reported previously (Meng et al., 2002, Neuron 35, 121-133). All mice were on a pure C57Bl/6 background. Mice were housed in standard individually ventilated cages on a 12 hour light/dark cycle with access to standard chow and water ad libitum. Mice of both genders were used unless otherwise indicated. Investigators were blinded to genotypes until after completion of data analysis. All experiments were approved by the Animal Ethics Committee of Macquarie University.
Electroencephalography. Hippocampal EEG recordings were done with implanted telemetric electrodes (D.S.I.) as previously described (Ittner et al., 2014, Acta neuropathologica communications 2, 149). All recordings were done with mice individually housed in their home cages one week after implantation of transmitters. Compound administration was done intraperitoneally during transient restraining of mice. Vehicle for the LIMK1 inhibitor LIMKi contained hydroxypropyl methylcellulose 606 (HPMC 606) with polyvinylpyrrolidone k17 (PVP k17) and tween 80 in a proportion of 0.5%, 0.5%, 0.1%, respectively. Spike analysis was done with the Neuroscore software module (D.S.I.) as previously described (Ittner et al., 2016, Science 354, 904-908). Cross frequency coupling of theta and gamma waves was performed as previously described (Ittner et al., 2016, Science 354, 904-908).
(§2) Next, the inventors tested the effects of acute Compound 1 administration on neuronal network activity in APP23 mice. […] Furthermore, CFC 1 hour after Compound 1 administration was re-established (data not shown). […] Thus, inhibition of LIMK1 with Compound 1 conferred protection from Aβ toxicity in neurons and from excitotoxicity in vivo. Furthermore, treatment of APP23 with Compound 1 corrected network aberrations including CFC.

[2] = test system: C57Bl/6 mice; assay: Pentylenetetrazole (PTZ)-induced excitotoxic seizure model; conditions: for mean seizure severity (score 0 to 5): n=9
Protocol: as §1
Seizure model. Excitotoxic seizure were induced in mice by intraperitoneal injection of 50 mg/kg body weight pentylenetetrazole followed by observation in a square area (40×40 cm). Scoring of seizures was done as previously described (Ittner et al., 2010, Cell 142, 387-397). For LIMKi-treated mice, scoring was adjusted by combining the severe seizure scores 5 to 7 into a single score of 5. For both scales, minor to moderate seizures are reflected by scores <5.
as §2

[3] = test system: non-transgenic (wt) mice; assay: Telemetric hippocampal EEG recordings in non-transgenic (wt) mice; conditions: pre and post intraperitoneal injection
Protocol: as §1
Electroencephalography. Hippocampal EEG recordings were done with implanted telemetric electrodes (D.S.I.) as previously described (Ittner et al., 2014, Acta neuropathologica communications 2, 149). All recordings were done with mice individually housed in their home cages one week after implantation of transmitters. […]

[4] = 1 hour after administration, n=8
[5] = 1 hour after administration, n=8, listed as LIMKi
[6] = 10 mg/kg intraperitoneally 30 minutes prior to 50 mg/kg PTZ i.p., vs vehicle controls

Cc1c[nH]c2ncnc(N3CCN(/C(=N\C#N)Nc4cccc(Br)c4)[C@@H](C)C3)c12 [Compound 1]
cross frequency coupling (CFC) ([1]; 1 hour after administration, data not shown): re-established | amplitude phase in EEG recordings [1, 4]: normalized | modulation index of cross frequency coupling [1, 4]: normalized | amplitude phase in EEG recordings [1, 5]: corrected 1 hour after LIMKi delivery and no longer different from wt controls | modulation index of cross frequency coupling [1, 5]: corrected 1 hours after LIMKi administration and no longer different from wt controls | spike frequency / hypersynchronous discharges in EEG ([1]; n=8): hypersynchronicity significantly decreased | spike frequency / hypersynchronous discharges in EEG ([1]; n=8, listed as LIMKi): significantly reduced spike frequency | latency to develop severe seizures ([2]; 10 mg/kg 30 minutes prior to PTZ, C57Bl/6 mice): increased the latency to develop severe seizures | development of severe seizure stages over time (score=5) [2, 6]: Only vehicle-treated mice develop severe seizure stages over time | latency to develop lower grade seizures (score <5) [2, 6]: Delayed latency to develop lower grade seizures | mean seizure severity (score 0 to 5) [2, 6]: significantly reduced mean seizure severity | mean seizure severity (score 0 to 5) ([2]; 10 mg/kg intraperitoneally 30 minutes prior to 50 mg/kg PTZ i.p., vs vehicle controls, listed as LIMKi): Significantly reduced seizure severity | spike activity in EEG [3]: No overt spike activity
